One test concerns HL-60. Briefly: Cytotoxicity against human HL60 cells assessed as decrease in cell proliferation after 48 hrs by MTT assay. Format: functional, cell-based. As to conditions: HL-60, 48 h.
For test [1], the system named is KG-1a. Put plainly: Cytotoxicity against human KG1a cells assessed as decrease in cell proliferation after 48 hrs by MTT assay. Format: functional, cell-based.
For test [2], the system named is KG-1a. Put plainly: Induction of apoptosis in human KG1a cells assessed as late apoptotic cells at 20 uM after 16 hrs by annexin V-FITC/propidium iodide staining-based flow cytometric method (reference value: 1.01%). Format: functional.
The subject of test [3] is KG-1a. Briefly: Induction of apoptosis in human KG1a cells assessed as early apoptotic cells at 20 uM after 16 hrs by annexin V-FITC/propidium iodide staining-based flow cytometric method (reference value: 0.113%). Format: functional. A general note: A flow cytometer gives signals particle by particle.
Test [4] deals with KG-1a. Put plainly: Induction of apoptosis in human KG1a cells assessed as necrotic cells at 10 uM after 16 hrs by annexin V-FITC/propidium iodide staining-based flow cytometric method (reference value: 0.170%). Format: functional.
Test [5] concerns KG-1a. Put plainly: Induction of apoptosis in human KG1a cells assessed as early apoptotic cells at 10 uM after 16 hrs by annexin V-FITC/propidium iodide staining-based flow cytometric method (reference value: 0.113%). Format: functional.
The subject of test [6] is KG-1a. Put plainly: Induction of apoptosis in human KG1a cells assessed as viable cells at 20 uM after 16 hrs by annexin V-FITC/propidium iodide staining-based flow cytometric method (reference value: 98.7%). Format: functional. As to conditions: read-out: Activity.
For test [7], the system named is KG-1a. Put plainly: Induction of apoptosis in human KG1a cells assessed as late apoptotic cells at 10 uM after 16 hrs by annexin V-FITC/propidium iodide staining-based flow cytometric method (reference value: 1.01%). Format: functional.
For test [8], the system named is KG-1a. Put plainly: Induction of apoptosis in human KG1a cells assessed as necrotic cells at 20 uM after 16 hrs by annexin V-FITC/propidium iodide staining-based flow cytometric method (reference value: 0.170%). Format: functional.
Test [9] relates to KG-1a. Briefly: Induction of apoptosis in human KG1a cells assessed as viable cells at 10 uM after 16 hrs by annexin V-FITC/propidium iodide staining-based flow cytometric method (reference value: 98.7%). Format: functional. The following applies: read-out: Activity.
The nature of test [10]: Selectivity ratio of IC50 for human KG1a cells to IC50 for human HL60 cells. Format: functional.

Regarding `C=C1C(=O)O[C@H]2[C@H]1CC/C(COC(=O)c1ccc(C(F)(F)F)cc1)=C\CC[C@@]1(C)O[C@@H]21`, the IC50 in the test on HL-60 worked out at 2.3 µM; with KG-1a [1], 4 µM.

For the compound `C=C1C(=O)O[C@H]2[C@H]1CC/C(C(=O)N1CCN(C(=O)OC(C)(C)C)CC1)=C\CC[C@@]1(C)O[C@@H]21`, the IC50 with HL-60 came to 5.1 µM; in the test on KG-1a [1], 1.7 µM.

On to `C=C1C(=O)O[C@H]2[C@H]1CC/C(C(=O)N1CCOCC1)=C\CC[C@@]1(C)O[C@@H]21`, for which the IC50 with HL-60 was found to be 3.9 µM; with KG-1a [1], 29.9 µM.

On to `C=C1C(=O)O[C@H]2[C@H]1CC/C(C(=O)N1CCCC1)=C\CC[C@@]1(C)O[C@@H]21`, for which the values for the IC50 in the test with HL-60 and with KG-1a [1] were 4 µM and 1.8 µM, respectively.

Consider `C=C1C(=O)O[C@H]2[C@H]1CC/C(C(=O)OCc1ccccc1)=C\CC[C@@]1(C)O[C@@H]21`, for which the IC50 in the test with HL-60 amounted to 2.2 µM; in the test on KG-1a [1] it was 3.3 µM.

For `C=C1C(=O)O[C@H]2[C@H]1CC/C(COC(=O)c1cccs1)=C\CC[C@@]1(C)O[C@@H]21`, the figures for the IC50 with HL-60 and with KG-1a [1] were 1.7 µM and 3.9 µM, respectively.

For the compound `C=C1C(=O)O[C@H]2[C@H]1CC/C(COC(=O)c1ccccc1C#N)=C\CC[C@@]1(C)O[C@@H]21`, the results for the IC50 with HL-60 and in the test with KG-1a [1] were 1.2 µM and 3.3 µM, respectively.

In the case of `C=C1C(=O)O[C@H]2[C@H]1CC/C(C(=O)N(CCC)CCC)=C\CC[C@@]1(C)O[C@@H]21`, the values for the IC50 in the test with HL-60 and with KG-1a [1] were 1 µM and 2 µM, respectively.

With `C=C1C(=O)O[C@H]2[C@H]1CC/C(COCc1ccc(C(F)(F)F)cc1)=C\CC[C@@]1(C)O[C@@H]21`, the results for the IC50 in the test with HL-60 and in the test with KG-1a [1] were 1.9 µM and 2.4 µM, respectively.

Consider `C=C1C(=O)O[C@H]2[C@H]1CC/C(C(=O)N1CCC(C)CC1)=C\CC[C@@]1(C)O[C@@H]21`, for which the IC50 in the test with HL-60 is 6.3 µM; in the test with KG-1a [1], 1.6 µM.

Take `C=C1C(=O)O[C@H]2[C@H]1CC/C(C(=O)N(C)C)=C\CC[C@@]1(C)O[C@@H]21`: the IC50 in the test on HL-60 was determined as 1.3 µM; in the test with KG-1a [1], 6.1 µM.

As to `C=C1C(=O)O[C@H]2[C@H]1CC/C(c1nc3ccccc3s1)=C\CC[C@@]1(C)O[C@@H]21`, the IC50 came out at 8.2 µM with HL-60 and 5.1 µM in the test on KG-1a [1].

Take `C=C1C(=O)O[C@H]2[C@H]1CC/C(COC(=O)/C=C/C)=C\CC[C@@]1(C)O[C@@H]21`: the IC50 is 4.6 µM in the test with HL-60 and 5.1 µM in the test on KG-1a [1].

On to `C=C1C(=O)O[C@H]2[C@H]1CC/C(C(=O)N(CCCC)CCCC)=C\CC[C@@]1(C)O[C@@H]21`, for which the IC50 was 3.7 µM in the test with HL-60 and 1.4 µM in the test on KG-1a [1].

On to `C=C1C(=O)O[C@H]2[C@H]1CC/C(COCc1ccccc1)=C\CC[C@@]1(C)O[C@@H]21`, for which the IC50 with HL-60 was 3.5 µM; in the test with KG-1a [1] it was 4.8 µM.

Turning to `C=C1C(=O)O[C@H]2[C@H]1CC/C(C(=O)N(CC)CC)=C\CC[C@@]1(C)O[C@@H]21`, the IC50 in the test on HL-60 stood at 2.7 µM; with KG-1a [1] it was 4.3 µM.

Regarding `C=C1C(=O)O[C@H]2[C@H]1CC/C(COC(=O)c1ccccc1)=C\CC[C@@]1(C)O[C@@H]21`, the IC50 stood at 2.4 µM in the test with HL-60 and 3.3 µM in the test on KG-1a [1].

As for `C=C1C(=O)O[C@H]2[C@H]1CC/C(COCc1ccc(OC)cc1)=C\CC[C@@]1(C)O[C@@H]21`, the values for the IC50 in the test on HL-60 and in the test on KG-1a [1] were 2.7 µM and 1.1 µM, respectively.

Consider `C=C1C(=O)O[C@H]2[C@H]1CC/C(C(=O)N1CCC(c3ccccc3)CC1)=C\CC[C@@]1(C)O[C@@H]21`, for which the IC50 in the test on HL-60 and with KG-1a [1] was 2.2 µM each time.

For `C=C1C(=O)O[C@H]2[C@H]1CC/C(COC(=O)CCCCCC)=C\CC[C@@]1(C)O[C@@H]21`, the results for the IC50 with HL-60 and in the test with KG-1a [1] were 6 µM and 5.8 µM, respectively.

With `C=C1C(=O)O[C@H]2[C@H]1CC/C(C(=O)O)=C\CC[C@@]1(C)O[C@@H]21`, the IC50 in the test on HL-60 and in the test on KG-1a [1] was over 50 µM in each case.

As for `C=C1C(=O)O[C@H]2[C@H]1CC/C(COC)=C\CC[C@@]1(C)O[C@@H]21`, the IC50 was found to be 7.7 µM in the test on HL-60 and 2.4 µM in the test with KG-1a [1].

In the case of `C=C1C(=O)O[C@H]2[C@H]1CC/C(COC(=O)c1ccc(C#N)cc1)=C\CC[C@@]1(C)O[C@@H]21`, the figures for the IC50 in the test with HL-60 and in the test with KG-1a [1] were 1.7 µM and 6.7 µM, respectively.

As to `C=C1C(=O)O[C@H]2[C@H]1CC/C(COC(=O)/C=C/c1ccccc1)=C\CC[C@@]1(C)O[C@@H]21`, the Activity with KG-1a [2] is 46.7%; with KG-1a [3], 0.087%; in the test on KG-1a [4] it was 1.37%; in the test with KG-1a [5] it was 0.381%; with KG-1a [7], 22.7%; with KG-1a [8], 1.61%. The IC50 came to 1.1 µM in the test with HL-60 and 0.4 µM with KG-1a [1]. The viability at 20 µM in the test with KG-1a [6] came to 51.6%. For the same compound, the viability at 10 µM in the test on KG-1a [9] was 75.6%.

For the compound `C=C1C(=O)O[C@H]2[C@H]1CC/C(C(=O)N1CCN(C(=O)/C3=C/CC[C@@]4(C)O[C@H]4[C@H]4OC(=O)C(=C)[C@@H]4CC3)CC1)=C\CC[C@@]1(C)O[C@@H]21`, the IC50 in the test with HL-60 and in the test with KG-1a [1] was over 50 µM each time.

In the case of `C=C1C(=O)O[C@H]2[C@H]1CC/C(C(=O)N1CCNCC1)=C\CC[C@@]1(C)O[C@@H]21`, the IC50 in the test with HL-60 and with KG-1a [1] was over 50 µM throughout.

In the case of `C=C1C(=O)O[C@H]2[C@H]1CC/C(C(=O)N1CCCCC1)=C\CC[C@@]1(C)O[C@@H]21`, the IC50 stood at 1.8 µM in the test on HL-60 and 3.2 µM in the test with KG-1a [1].

For `C=C1C(=O)O[C@H]2[C@H]1CC/C(COC(C)=O)=C\CC[C@@]1(C)O[C@@H]21`, the figures for the IC50 in the test on HL-60 and in the test with KG-1a [1] were 2.8 µM and 6.3 µM, respectively.

`C=C1C(=O)O[C@H]2[C@H]1CC/C(C(=O)OCc1ccc(C(F)(F)F)cc1)=C\CC[C@@]1(C)O[C@@H]21`: the results for the IC50 with HL-60 and in the test on KG-1a [1] were 1 µM and 2 µM, respectively.

For the compound `C=C1C(=O)O[C@H]2[C@H]1CC/C(C(=O)OC)=C\CC[C@@]1(C)O[C@@H]21`, the results for the IC50 in the test on HL-60 and in the test on KG-1a [1] were 4.9 µM and 5.4 µM, respectively.

As to `C=C1C(=O)O[C@H]2[C@H]1CC/C(COC(=O)C1CCCCC1)=C\CC[C@@]1(C)O[C@@H]21`, the IC50 was determined as 6.7 µM in the test with HL-60 and 8.6 µM in the test on KG-1a [1].

Take `C=C1C(=O)O[C@H]2[C@H]1CC/C(COC(=O)c1ccc(OC)cc1)=C\CC[C@@]1(C)O[C@@H]21`: the IC50 stood at 2.1 µM in the test with HL-60 and 5.3 µM in the test on KG-1a [1].

As for `C=C1C(=O)O[C@@H]2C3O[C@]3(C)CC/C=C(\C)CC[C@@H]12` (some centres undefined), the Activity in the test with KG-1a [2] worked out at 13.1%; in the test with KG-1a [3], 0.336%; with KG-1a [4], 0.327%; in the test with KG-1a [5], 0.413%; in the test with KG-1a [7] it was 4.08%; in the test on KG-1a [8], 1.81%. Moreover, the IC50 in the test with HL-60 worked out at 4.2 µM; with KG-1a [1], 3.5 µM. Besides, in the test with KG-1a [6], the viability at 20 µM turned out to be 84.7%. For the same compound, the viability at 10 µM in the test on KG-1a [9] worked out at 95.2%.

`C=C1C(=O)O[C@H]2[C@H]1CC/C(C=O)=C\CC[C@@]1(C)O[C@@H]21`: the IC50 amounted to 9.9 µM with HL-60 and 6.3 µM in the test with KG-1a [1].

For `C=C1C(=O)O[C@H]2[C@H]1CC/C(CO)=C\CC[C@@]1(C)O[C@@H]21`, the values for the IC50 in the test on HL-60 and in the test on KG-1a [1] were 10.3 µM and 6.8 µM, respectively.

Consider `COc1cccc2c1C(=O)c1c(O)c3c(c(O)c1C2=O)C[C@@](O)(C(=O)CO)C[C@@H]3O[C@H]1C[C@H](N)[C@H](O)[C@H](C)O1.Cl` [DOXORUBICIN HYDROCHLORIDE], for which the IC50 was 0.019 µM in the test with HL-60 and 0.08 µM in the test with KG-1a [1]. Further, the “Ratio IC50” value in test [10] came to 4.

The term IC50 denotes the concentration needed to halve the response being measured.

Source of the values: ChEMBL document CHEMBL3997783, “Synthesis and anti-acute myeloid leukemia activity of C-14 modified parthenolide derivatives” (Eur J Med Chem, 2017).
